Data: PubChem BioAssay (NCI)
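Following 48 hours of exposure in 96-well plates, responses at five concentrations were used to interpolate endpoints linearly. GI50: concentration for 50% inhibition of growth. The concentration for full growth arrest is given as TGI.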

What was measured:
Assay in all cases: inhibition of tumour cell growth, NCI panel, 48 h
[1] = test system: MDA-MB-468 breast
[2] = test system: SW-620 colon
[3] = test system: M14 melanoma
[4] = test system: COLO 205 colon
[5] = test system: MALME-3M melanoma
[6] = test system: 786-0 renal
[7] = test system: RXF 393 renal
[8] = test system: SF-295 CNS
[9] = test system: HOP-62 NSCLC
[10] = test system: TK-10 renal
[11] = test system: PC-3 prostate
[12] = test system: UACC-62 melanoma
[13] = test system: SK-MEL-28 melanoma
[14] = test system: OVCAR-8 ovarian
[15] = test system: HS 578T breast
[16] = test system: SF-539 CNS
[17] = test system: HOP-92 NSCLC
[18] = test system: HCC-2998 colon
[19] = test system: OVCAR-3 ovarian
[20] = test system: BT-549 breast
[21] = test system: MCF7 breast
[22] = test system: MDA-MB-435
[23] = test system: SNB-19 CNS
[24] = test system: OVCAR-4 ovarian
[25] = test system: EKVX NSCLC
[26] = test system: CAKI-1 renal
[27] = test system: NCI-H522 lung
[28] = test system: SR leukemia
[29] = test system: NCI-H226 lung
[30] = test system: LOX IMVI melanoma
[31] = test system: ACHN renal
[32] = test system: SN12C renal
[33] = test system: NCI-H460 lung
[34] = test system: DU-145 prostate
[35] = test system: HT29 colon
[36] = test system: NCI-H23 lung
[37] = test system: A498 renal
[38] = test system: HCT-116 colon
[39] = test system: U251 CNS
[40] = test system: SK-OV-3 ovarian
[41] = test system: CCRF-CEM leukemia
[42] = test system: UACC-257 melanoma
[43] = test system: K-562 leukemia
[44] = test system: SF-268 CNS
[45] = test system: MDA-MB-231 breast
[46] = test system: SNB-75 CNS
[47] = test system: T-47D breast
[48] = test system: A549 NSCLC
[49] = test system: IGROV1 ovarian
[50] = test system: OVCAR-5 ovarian
[51] = test system: HL-60(TB) leukemia
[52] = test system: MOLT-4 leukemia
[53] = test system: KM12 colon
[54] = test system: HCT-15 colon
[55] = test system: SK-MEL-5 melanoma
[56] = test system: UO-31 renal
[57] = test system: RPMI-8226 leukemia

CCCCCCCC/C=C/CCCCCCCC1=NC(C)(C)CN1C(C)C
GI50 [1]: 1.31 µM
TGI [1]: 2.7 µM

c1cc(OCCN2CCCCCC2)ccc1CNc1ccc2nc(CCC3CCCCC3)[nH]c2c1
GI50 [1]: 1.55 µM
TGI [1]: 4.02 µM

C=C1C(=O)O[C@H]2[C@H]1CC/C(Cn1cc(Cn3ccc4ccccc43)nn1)=C\CC[C@@]1(C)O[C@@H]21
GI50 [1]: 0.717 µM
TGI [1]: 2.48 µM

COc1ccc(/C(C)=C(\c2ccc(Cl)cc2)c2ccc(OCCN3CCCC3)cc2)cc1F
GI50 [1]: 3.35 µM
TGI [1]: 7.18 µM

O=C(COc1ccc(NC(=O)Nc2ccc(Cl)cc2)cc1)N/N=C/c1ccccc1
GI50 [2]: 6.03 µM
TGI [2]: > 100 µM
GI50 [3]: 5.02 µM
TGI [3]: > 100 µM
GI50 [4]: 19 µM
TGI [4]: > 100 µM
GI50 [5]: 4.44 µM
TGI [5]: 71.7 µM
GI50 [6]: 6.26 µM
TGI [6]: 24.9 µM
GI50 [7]: 4.55 µM
TGI [7]: 19 µM
GI50 [8]: 2.69 µM
TGI [8]: 13.7 µM
GI50 [9]: 2.62 µM
TGI [9]: 11.1 µM
GI50 [10]: 20.2 µM
TGI [10]: 63.8 µM
GI50 [11]: 2.81 µM
TGI [11]: 21.2 µM
GI50 [12]: 2.82 µM
TGI [12]: 13.7 µM
GI50 [13]: 3.87 µM
TGI [13]: 43.1 µM
GI50 [14]: 3.81 µM
TGI [14]: > 100 µM
GI50 [15]: 7.71 µM
TGI [15]: 54.2 µM
GI50 [16]: 6.23 µM
TGI [16]: 27.4 µM
GI50 [17]: 3 µM
TGI [17]: 16 µM
GI50 [18]: 22.5 µM
TGI [18]: > 100 µM
GI50 [19]: 4.15 µM
TGI [19]: 54.2 µM
GI50 [20]: 4.41 µM
TGI [20]: 56.2 µM
GI50 [21]: 3.88 µM
TGI [21]: > 100 µM
GI50 [22]: 3.76 µM
TGI [22]: > 100 µM
GI50 [23]: 4.42 µM
TGI [23]: 20.7 µM
GI50 [24]: 3.34 µM
TGI [24]: 68.7 µM
GI50 [25]: 6.09 µM
TGI [25]: 90.8 µM
GI50 [26]: 15 µM
TGI [26]: > 100 µM
GI50 [27]: 7.74 µM
TGI [27]: > 100 µM
GI50 [28]: 4.59 µM
TGI [28]: 33.1 µM
GI50 [29]: 2.85 µM
TGI [29]: 9.82 µM
GI50 [30]: 7.1 µM
TGI [30]: > 100 µM
GI50 [31]: 4.64 µM
TGI [31]: 37.6 µM
GI50 [32]: 7.64 µM
TGI [32]: > 100 µM
GI50 [33]: 3.22 µM
TGI [33]: > 100 µM
GI50 [34]: 4.51 µM
TGI [34]: > 100 µM
GI50 [35]: 31.2 µM
TGI [35]: > 100 µM
GI50 [36]: 4.21 µM
TGI [36]: 25.9 µM
GI50 [37]: 20.1 µM
TGI [37]: 50.9 µM
GI50 [38]: 1.68 µM
TGI [38]: 12.6 µM
GI50 [39]: 4.05 µM
TGI [39]: > 100 µM
GI50 [40]: 6.06 µM
TGI [40]: 25.8 µM
GI50 [41]: 21.8 µM
TGI [41]: > 100 µM
GI50 [42]: 17.4 µM
TGI [42]: > 100 µM
GI50 [43]: 12.6 µM
TGI [43]: > 100 µM
GI50 [44]: 16.2 µM
TGI [44]: 99.8 µM
GI50 [45]: 8.57 µM
TGI [45]: 47.6 µM
GI50 [46]: 3.95 µM
TGI [46]: 24.3 µM
GI50 [47]: 8.22 µM
TGI [47]: > 100 µM
GI50 [48]: 4.67 µM
TGI [48]: > 100 µM
GI50 [49]: 14.1 µM
TGI [49]: > 100 µM
GI50 [50]: > 100 µM
TGI [50]: > 100 µM
GI50 [51]: > 100 µM
TGI [51]: > 100 µM
GI50 [52]: 59.5 µM
TGI [52]: > 100 µM
GI50 [53]: > 100 µM
TGI [53]: > 100 µM
GI50 [54]: 5.85 µM
TGI [54]: > 100 µM
GI50 [1]: 3.23 µM
TGI [1]: 10.6 µM
GI50 [55]: 8.49 µM
TGI [55]: > 100 µM
GI50 [56]: 86.4 µM
TGI [56]: > 100 µM
GI50 [57]: 63.9 µM
TGI [57]: > 100 µM

O=C1/C(=C\C(Cl)=C/c2ccc([N+](=O)[O-])cc2)SC(=S)N1CCc1ccc(O)cc1
GI50 [1]: 0.405 µM
TGI [1]: 1.74 µM

COc1ccc(-c2cnc3ccnn3c2-c2cc(OC)c(OC)c(OC)c2)cc1
GI50 [1]: 2.64 µM
TGI [1]: > 100 µM

CCOC(=O)/C(=C/c1ccc([N+](=O)[O-])cc1)C(=O)c1ccccc1
GI50 [1]: 2.31 µM
TGI [1]: 4.6 µM

O=C1c2cc3c(cc2-c2c1c1ccc(Cl)cc1c(=O)n2C[C@H](O)[C@@H](O)[C@H](O)CO)OCO3
GI50 [1]: 0.0189 µM
TGI [1]: 0.0459 µM

NC1=C(Cl)C(=O)c2ccc(S(N)(=O)=O)cc2C1=O
GI50 [1]: 0.181 µM
TGI [1]: 0.486 µM

CCCc1cc2cc(-n3nc(C)c4c3CC(C)(C)CC4=O)cc(NC3CCC(O)CC3)c2c(=O)[nH]1 (stereo unspecified)
GI50 [1]: 0.0475 µM
TGI [1]: > 100 µM

N#CC(=S)Nc1ccc(Cl)c(Cl)c1
GI50 [1]: 6.1 µM
TGI [1]: 52.2 µM

COc1cc(/C=C/C(=O)c2ccc(Nc3ncnc4ccccc34)cc2)cc(OC)c1
GI50 [1]: 2.2 µM
TGI [1]: 10.7 µM

Cc1cccc2c(N=Nc3ccc(S(N)(=O)=O)cc3)c(O)[nH]c12
GI50 [1]: > 25 µM
TGI [1]: > 25 µM

Cc1c2c(nn1C(=O)c1nn(-c3ccc(Cl)cc3)cc1O)-c1ccccc1CC2
GI50 [1]: 0.25 µM
TGI [1]: > 58.2 µM

CN[C@]12CC3(C=CC(=O)C=C3)O[C@@]1(Cc1ccc(OC)cc1)N(C)C(=O)N2
GI50 [1]: 1.25 µM
TGI [1]: 3.5 µM

O=C(O)c1ccc2c(c1Nc1ccccc1)C(=O)c1ccccc1C2=O
GI50 [1]: 31.8 µM
TGI [1]: > 100 µM

O=C(O)C(CSC(c1ccccc1)(c1ccccc1)c1ccccc1)N=Cc1cccs1 (stereo unspecified)
GI50 [1]: 0.232 µM
TGI [1]: 0.922 µM

CN(C)CCCN(c1nc(C(Cl)(Cl)Cl)ns1)c1nc(C(Cl)(Cl)Cl)ns1
GI50 [1]: 1.66 µM
TGI [1]: 3.11 µM

COc1cc(/C=C2\CN(C)C/C(=C\c3cc(OC)c(OC)c(OC)c3)C2=O)cc(OC)c1OC
GI50 [1]: 0.266 µM
TGI [1]: 0.849 µM

CCN(CC)CCOc1ccc(/C(=C(\C)Cc2ccc(OC)cc2)c2ccc(OC(=O)NCc3ccccc3)cc2)cc1
GI50 [1]: 1.9 µM
TGI [1]: 3.96 µM

O=C1OCc2c1cc(F)cc2[N+](=O)[O-]
GI50 [1]: > 100 µM
TGI [1]: > 100 µM

O=C1C(=O)c2ccccc2-c2ccccc21
GI50 [1]: 1.7 µM
TGI [1]: 3.53 µM

CN1CCC[C@@H]1CCO[C@](C)(c1ccccc1)c1ccc(Cl)cc1
GI50 [1]: 1.66 µM
TGI [1]: 3.51 µM

O=C(Nc1n[nH]c2nc(-c3ccco3)ccc12)C1CC1
GI50 [1]: > 25 µM
TGI [1]: > 25 µM

CCN(CC)c1ccc2c(c1)Oc1nc(N)c(C#N)c(N)c1C2Sc1ccc(C)cc1 (stereo unspecified)
GI50 [1]: 1.62 µM
TGI [1]: 3.14 µM

O=C(Nc1ccccc1)Nc1cccc(-n2cc(-c3ccncc3)c(-c3ccc(O)c(Cl)c3)n2)c1
GI50 [1]: 3.22 µM
TGI [1]: 12.2 µM

C=C1C(=O)O[C@H]2[C@H]1CC/C(COC(=O)CCCCCCCCC(=O)OC/C1=C/CC[C@@]3(C)O[C@H]3[C@H]3OC(=O)C(=C)[C@@H]3CC1)=C\CC[C@@]1(C)O[C@@H]21
GI50 [1]: 2.27 µM
TGI [1]: 5.15 µM

C/C(CC(=O)NNc1ccc([N+](=O)[O-])cc1)=N\Nc1ccc([N+](=O)[O-])cc1
GI50 [1]: 28.1 µM
TGI [1]: > 100 µM

COc1ccc(/C=C2\CN(Cc3cn(CCCNc4ccnc5cc(Cl)ccc45)nn3)C/C(=C\c3ccc(OC)c(OC)c3)C2=O)cc1OC
GI50 [1]: 0.772 µM
TGI [1]: 2.49 µM

COc1ccc(N(CC(=O)NCCC[Te]c2ccccc2)C(=O)CCSC2=C(C)C(=O)c3ccccc3C2=O)cc1
GI50 [1]: 1.67 µM
TGI [1]: 3.39 µM

COc1ccc(-c2nn(-c3cccc(NC(=O)Nc4ccc(Cl)c(C(F)(F)F)c4)c3)cc2-c2ccncc2)cc1Cl
GI50 [1]: 1.63 µM
TGI [1]: 6.78 µM
